Source: patent US20040229246A1, “Diagnostic markers for therapeutic treatment” (Can-Fite Biopharam Ltd., priority 2002, published 2004)

Key:
A3AR [1] = target: T1, A3AR (Mus musculus, UniProt Q61618); assay: Western blot analysis of A3AR protein in B16-F10 melanoma cells; type: cell-based; settings: B16-F10 melanoma cells, Western blot
T1 construct: endogenous in cells; host or cells: B16-F10 melanoma cells
T1 sequence (Q61618 1-319): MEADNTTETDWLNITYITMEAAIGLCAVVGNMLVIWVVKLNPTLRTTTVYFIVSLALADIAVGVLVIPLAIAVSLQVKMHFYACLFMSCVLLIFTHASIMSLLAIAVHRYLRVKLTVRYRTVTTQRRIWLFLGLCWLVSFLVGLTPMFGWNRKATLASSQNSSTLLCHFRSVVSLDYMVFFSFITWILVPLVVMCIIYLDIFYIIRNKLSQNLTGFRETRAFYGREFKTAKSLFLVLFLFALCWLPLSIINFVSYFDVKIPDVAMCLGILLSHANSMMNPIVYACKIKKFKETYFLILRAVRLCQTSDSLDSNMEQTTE
Procedure: (§1) To detect the level of expression of the A3AR proteins Western blot analysis was performed. Cells were incubated in the presence and absence of IB-MECA (10 nM), MRS1523 (10 nM), Forskolin (50 nM), 8 Br cAMP (100 μM), Cycloheximide 20 μg/ml or MG 132 (20 nM) for different time periods at 37° C. Cells were then rinsed with ice-cold PBS and transferred to ice-cold lysis buffer (TNN buffer, 50 mM Tris buffer pH=7.5, 150 mM NaCl, NP 40). In the experiment examining the effect of trypsin on A3AR expression, cells were incubated with 0.5 ml of 0.25% trypsin for 5 minutes. The trypsinized cells were washed again with ice-cold PBS, harvested by centrifugation and subjected to lysis in TNN buffer. Cell debris was removed by centrifugation for 10 minutes, at 7500 xg. The supernatant was utilized for Western Blot analysis. Protein concentrations were determined using the Bio-Rad protein assay dye reagent. Equal amounts of the sample (50 μg) were separated by SDS-PAGE, using 12% polyacrylamide gels. The resolved proteins were then electroblotted onto nitrocellulose membranes (Schleicher & Schuell, Keene, NH, USA). Membranes were blocked with 1% bovine serum albumin and incubated with the desired primary antibody (dilution 1:1000) for 24 hours at 4° C. Blots were then washed and incubated with a secondary antibody for 1 hour at room temperature. Bands were recorded using BCIP/NBT color development kit (Promega, Madison, W1, USA). Data presented in the different figures are representative of at least three different experiments.
Receptor internalization by treating melanoma cells with trypsin, which removes the cell surface receptor, was examined.
Time dependent expression of A3AR in the melanoma cells was examined by Western blot analysis.

A3AR [2] = assay: Northern blot analysis of A3AR mRNA in B16-F10 melanoma cells; type: cell-based; settings: B16-F10 melanoma cells treated with IB-MECA
Procedure: Total RNA was isolated from B16-F10 melanoma cells treated with IB-MECA, utilizing Tri-reagent (Sigma, Saint Louis). The samples were then subjected twice to phenol:chloroform extraction and washed with chloroform. RNA was precipitated with sodium acetate/ethanol following washing with ethanol, then denatured, separated (25 μg per lane) in 1.1% formaldehyde agarose gels and transferred to Hybond-N membrane. The 390 bp EcoRI fragment from A3AR cDNA clone of mouse (TAA3I.S), kindly supplied by Dr Kathia Ravid, was prepared by random-primed synthesis. Probes were used in RNA blot analysis at a hybridization temperature of 42° C. in the presence of 50% formamide.

B16-F10 melanoma = B16-F10 melanoma tumor growth in mice; type: in vivo; settings: 100 μg/kg orally once daily, 15 days, p<0.0001
Procedure: (§2) Melanoma: C57BL/6J, male mice (Harlan Laboratories, Jerusalem, Israel) aged 2 months, weighing an average of 25 g were used. B16-F10 (2.5×105) melanoma cells were subcutaneously (s.c.) injected to the flank of the mice. IB-MECA at a dose of 100 μg/kg body weight was administered orally once daily, starting 24 hours after tumor cells' inoculation. The control group was treated daily, orally, with the vehicle only. Mice were sacrificed after 15 days, tumor lesions were excise and protein was extracted for measurements as described above. The tumor size (width (W) and length (L)) was measured with a caliber and calculated according to the following formula: Tumor Size =(W)2xL/2. Each group contained 15 mice and the study was repeated 3 times.
Consequently, an increase in the total GSK-3β level was noted, thereby leading to a decrease in the level of β-catenin.

[3] = system: PKA, PKB/Akt, GSK-3β, β-catenin, cyclin D1, c-myc, NF-κB; assay: Western blot of cell growth regulatory proteins in B16-F10 melanoma tumor lesions; type: in vivo, mice
Procedure: as §1, §2

[4] = system: HCT-116 human colon carcinoma; assay: HCT-116 human colon carcinoma development in mice; type: in vivo; settings: mice inoculated with HCT-116, 10 μg/kg orally daily
Procedure: Colon Carcinoma: Nude/BalbC male, 10-week-old mice were used. HCT-116 Human colon carcinoma cells (1.2×10^6 cells in 100 μL PBS) were inoculated subcutaneously to the flank of the mice. Treatment was initiated when tumors reached a size of ˜150 mm^3. Each group contained 10 mice, the control group treated with vehicle only, while the test group was administered daily orally with IB-MECA (10 μg/kg).
After 32 days the mice were sacrificed, tumor lesions were excise and protein was extracted for measurements as described above. Tumor size was evaluated by measuring with a caliber width (W) and length (L) and calculated according to the above formula.

- time dependent expression of A3AR (A3AR [1]; different time points): sinusoidal pattern
- A3AR protein level (A3AR [1]; versus untreated cells): down-regulated
Structure (SMILES): CNC(=O)[C@H]1O[C@@H](n2cnc3c(NCc4cccc(I)c4)ncnc32)[C@H](O)[C@@H]1O [IB-MECA, 1-deoxy-1-[6[[(3-iodophenyl)methyl]amino]-9H-purine-9-yl]-N-methyl-β-D-ribofura-nuronaminde]
- A3AR mRNA expression level (A3AR [2]): increase
- inhibition of B16-F10 melanoma tumor growth (B16-F10 melanoma): 76%
- NF-κB level [3]: down-regulated
- PKA level [3]: decreased
- PKB/Akt level [3]: decreased
- c-myc level [3]: down-regulated
- cyclin D1 level [3]: down-regulated
- total GSK-3β level [3]: increase
- β-catenin level [3]: decrease
- development of colon carcinoma (tumor size) [4]: markedly suppressed
